Reference: patent US20050260582A1, “Cell proliferation inhibitors comprising ets transcription factor or gene encoding the same” (priority 2001, published 2005)

Columns and labels:
A549 cell = assay: Cell morphology and F-actin staining; type: cell-based, human
Description: In FIG. 4, A549 cell, MEF gene overexpressing […] cell and A549 cell treated with BB94 (10 μM) are shown respectively from the left side.
Moreover, it has been reported that metastasis from epithelium to mesenchyme is induced by lack of E-cadherin or activation of MMPs [Llorens et al., 1998], expression of MMPs and E-cadherin was next examined. The right side in FIG. 5 is a photograph in place of a drawing, showing results of analyzing an MMP-9 protein content of A549 cell and MEF gene overexpressing cell in a serum-free culture supernatant (conditioned media) by western blotting using anti-MMP-9 antibody, and the left side in FIG. 5 is a photograph in place of a drawing, showing results of gelatin-zymography of MMP-9. […] In order to examine the decrease in MMP-9 activity in MEF gene overexpressing cell, A549 cell was treated with BB94 as an MMP inhibitor. […] Generally, such a morphological change thereof indicates reduction of an invasion activity. Accordingly, for examining an invasive function of A549 cell and MEF gene overexpressing cell, matrigel invasion assay was performed. In an upper chamber of FIG. 6, 2.5×10^5 A549 cells (left side), MEF gene overexpressing cells (center) and A549 cells (right side) treated with BB94 were inoculated respectively, and the numbers of cells on the lower side which were passed through a 8-μm filter were counted. […]

A549 cells = assay: Matrigel invasion assay; type: cell-based, human; conditions: cells passed through 8-μm filter after 24 hours; BB94-treated A549 as comparison
Source text: Moreover, it has been reported that metastasis from epithelium to mesenchyme is induced by lack of E-cadherin or activation of MMPs [Llorens et al., 1998], expression of MMPs and E-cadherin was next examined. The right side in FIG. 5 is a photograph in place of a drawing, showing results of analyzing an MMP-9 protein content of A549 cell and MEF gene overexpressing cell in a serum-free culture supernatant (conditioned media) by western blotting using anti-MMP-9 antibody, and the left side in FIG. 5 is a photograph in place of a drawing, showing results of gelatin-zymography of MMP-9. […] In an upper chamber of FIG. 6, 2.5×10^5 A549 cells (left side), MEF gene overexpressing cells (center) and A549 cells (right side) treated with BB94 were inoculated respectively, and the numbers of cells on the lower side which were passed through a 8-μm filter were counted. […]
200 μl of each cell suspension prepared to a concentration of 1.0×10^6 cells/ml was added to an upper layer of a matrigel invasion chamber (BD Biocoat Matrigel) having 8-μm pores, and 700 μl of a serum-free culture solution was added thereto. After 24 hours, the cells invaded in the lower layer of the membrane filter were stained with hematoxylin, and the number of the cells was then counted under a microscope.

IL-8 promoter = assay: Luciferase assay using IL-8 promoter; type: cell-based, human; conditions: 5-azacytidine (1 μM) and trichosamine A (1 μM)
Description: (§1) Accordingly, the present inventors further examined the function of MEF on transcription of MMP-9 and IL-8. For examining whether MEF directly suppresses transcription of MMP-9 and IL-8, the present inventors performed luciferase assay using MMP-9 and IL-8 promoters. […] In each case, the ordinate represents a relative luciferase activity, and the abscissa represents Basal, A549 cell, a case of adding 1.0 μM MEF, a case of adding 3.0 μM MEF, a case of adding 5.0 μM MEF and a case of adding MEF gene overexpressing cell (clone 71) from the left respectively. In A549 cell, a high luciferase activity of MMP-9 and IL-8 promoters was observed (FIG. 20). […] In each graph, the ordinate represents a relative luciferase activity, and the abscissa represents Basal, A549 cell, a case of adding Est-2 and a case of adding anti-Est-2 from the left respectively.
(§2) The finding of MMP-9 activation with ETS-2 is also backed up by the study on target deletion of Ets-2 using mice [Yamamoto, 1998]. Since MEF is, unlike PU-1, free from a repressor region [Kihara-Negishi, 2001] and interacts with HDAC or Sin3A having a deacetylase activity, the present inventors next assumed that MEF is a competitor with ETS-2 in ets binding sites of these promoters. […]

MEF expression = MEF expression by RT-PCR; type: cell-based, human
Source text: Next, since methylcytosine is recognized with methylated DNA bound to protein MeCP2 interacting with HDAC [Ng et al, 1999], the present inventors examined the effect given by the combined use of 5-aza-2′-deoxycytidine (5-azacytidine) as a demethylation agent and tricostatin A as a histone deacylase inhibitor in MEF expression of A549 cell. The results are shown in photographs in place of drawings in FIG. 3. […] GAPDH is shown as a control. In FIG. 3, HEK293 cell, A549 cell and Caco-2 cell are shown from the left side in an upper panel, and A549 cell and Caco-2 cell from the left side in a lower panel. In FIG. 3, DMSO indicates dimethyl sulfoxide, 5-AC indicates 5-azacytidine and TSA indicates tricostatin A respectively. […] The low MEF expression in Hela cell is considered to be attributed to any other unknown mechanism. This is also backed up by the report that Hela cell lacking in known methylation-dependent inhibitor MeCP2 becomes a silence methylation gene using another route including MBD2 [Ng et al., 1999].
Isogene (Nippon Gene) was used in extraction of all RNAs from culture cells. For comparison of various gene expressions of culture cells, RT-PCR was conducted. RNA PCR kit (AMV) ver. 2.1 (TaKaRa) was used for RT-PCR. The methods by which the gene expression identified in the invention are outlined below.
A reverse transcription reaction (at 42° C. for 60 minutes, at 99° C. for 5 minutes, at 5° C. for 5 minutes) was performed using 1 μg of all RNAs extracted from A549 and other cells as templates and oligo dT primers. Thereafter, PCR (at 94° C. for 2 minutes—1 cycle; at 94° C. for 30 seconds, at 58° C. for 30 seconds, at 72° C. for 30 seconds—40 cycles) was performed using an upstream primer (5′-[…]-3,) and a downstream primer (5,-[…]-3′).

MMP-9 promoter = assay: Luciferase assay using MMP-9 promoter; type: cell-based, human; conditions: 5-azacytidine (1 μM) and trichosamine A (1 μM)
Description: as §1, §2

[1] = tested on: human umbilical vein endothelial cells (HUVECs); assay: Migration of HUVECs toward serum-free culture supernatant; type: cell-based; conditions: 8-μm filter, 24 hours; A549 supernatant accelerated migration; bFGF positive control
Source text: Successively, it was further examined whether MEF gene overexpression of A549 cells influences metastasis of vessel endothelial cells. […] Human umbilical vein endothelial cells (HUVECs) were inoculated in an upper chamber, and cells migrating in a medium of a lower chamber were observed through a 8-μm filter.
The results are shown in FIG. 17 by photographs in place of drawings. […] In FIG. 18, the ordinate represents a (%) migration activity relative to a non-treated case, and the abscissa represents a non-treated case, a case of bFGF, a case of A549 cell and a case of MEF gene overexpressing cell (clone 71) from the left side respectively.
[…] of a cell suspension containing HUVECs at a concentration of 2.5×10^5 cells/ml was added to an upper layer of a matrigel invasion chamber (BD Biocoat Matrigel) having 8-μm pores. Subsequently, 700 μl of a serum-free culture supernatant produced according to 1. of Example 10 was added to a lower layer. After 24 hours, HUVECs invaded into the lower layer of the membrane filter were stained with hematoxylin, and the number of cells was then counted under a microscope.

CNC(=O)[C@H](Cc1ccccc1)NC(=O)[C@H](CC(C)C)[C@H](CSc1cccs1)C(=O)NO [BB94]
F-actin localization (A549 cell; MEF gene overexpression or BB94 10 μM): localization of F-actin in the interface between cells | morphological change (A549 cell; MEF gene overexpression, BB94 10 μM or 5-azacytidine 10 μm): induced typical morphological change | invasion activity (A549 cells): inhibitory effect

CC(/C=C/C(=O)NO)=C\[C@@H](C)C(=O)c1ccc(N(C)C)cc1 [tricostatin A]
IL-8 promoter activity (IL-8 promoter): inhibited | MEF expression (MEF expression; A549 cell, combined use of 5-azacytidine (1 μM) and tricostatin A (300 μM)): clearly increased the MEF expression | MEF expression (MEF expression; A549 cell, single use of the reagent): increased the MEF expression only slightly | MEF expression (MEF expression; Caco-2 cell, 5-azacytidine and tricostatin A): same effect was observed | MEF expression (MEF expression; HEK293 cell, 5-azacytidine and tricostatin A): not in HEK293 and Hela cells | MEF expression (MEF expression; Hela cell, 5-azacytidine and tricostatin A): not in HEK293 and Hela cells | MMP-9 promoter activity (MMP-9 promoter): inhibited

bFGF: basic FGF, positive control for HUVEC migration
migration of HUVECs [1]: increased migration of HUVECs
